Tests used:
Topo I = target: T1, Topo I (Homo sapiens, UniProt P11387); assay: Topo I activity assay, nuclear extracts of treated A-549 cells, supercoiled DNA; assay type: cell-based; design: Nuclear extracts from 9a-treated A-549 cells were incubated with supercoiled DNA (for Topo I); endogenous in cells; host or cells: A-549
T1 sequence (P11387 1-765): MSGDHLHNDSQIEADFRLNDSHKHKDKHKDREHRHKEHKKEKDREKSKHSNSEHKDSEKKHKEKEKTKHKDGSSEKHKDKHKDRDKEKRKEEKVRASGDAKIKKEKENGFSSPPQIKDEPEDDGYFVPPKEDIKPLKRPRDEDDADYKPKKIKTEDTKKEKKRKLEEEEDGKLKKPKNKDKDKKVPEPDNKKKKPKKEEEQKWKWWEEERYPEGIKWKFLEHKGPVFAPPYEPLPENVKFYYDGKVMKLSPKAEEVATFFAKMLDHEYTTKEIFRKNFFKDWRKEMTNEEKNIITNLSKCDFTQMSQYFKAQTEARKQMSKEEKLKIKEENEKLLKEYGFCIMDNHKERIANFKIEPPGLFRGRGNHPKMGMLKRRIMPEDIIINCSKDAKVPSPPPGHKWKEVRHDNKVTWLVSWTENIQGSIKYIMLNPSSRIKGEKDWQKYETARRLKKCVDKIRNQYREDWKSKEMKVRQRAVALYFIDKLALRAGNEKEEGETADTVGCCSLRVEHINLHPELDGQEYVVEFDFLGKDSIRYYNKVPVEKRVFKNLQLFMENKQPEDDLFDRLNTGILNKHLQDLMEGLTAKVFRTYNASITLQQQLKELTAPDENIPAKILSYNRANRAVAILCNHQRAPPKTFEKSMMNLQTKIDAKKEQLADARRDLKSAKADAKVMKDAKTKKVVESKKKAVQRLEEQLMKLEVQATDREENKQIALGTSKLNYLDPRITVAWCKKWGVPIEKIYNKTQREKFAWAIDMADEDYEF
Protocol: First, we determined the effect of 9a on cell cycle distribution using flow cytometry analysis. […] Because it has been shown that 1-Topo I-DNA covalent complexes enhance the transcription-dependent degradation of Topo I via a 26S proteasome pathway,^32 the effects of 9a on the expression levels of Topo I and Topo II were investigated.
Topo I activity test was performed using an assay kit (TopoGEN) according to the manufacturer's instructions. Nuclear extracts from 9a-treated A-549 cells were incubated with supercoiled DNA (for Topo I) or catenated kDNA (for Topo II) for 30 min at 37° C. Reaction mixture was separated by is 1% agarose gel in 1×TAE buffer. The gel was stained with ethidium bromide and photographed using Gel Doc XR (Bio-Rad).

HCT 116 (Colon cancer) = assay: cells; assay type: cell-based, human; details: Table 6; read-out: In vitro cytotoxicity HCT 116 (Colon cancer)
A-549 cells = assay: Apoptosis assessment, Annexin V-FITC/propidium iodide double staining; assay type: cell-based, human
Protocol: Initially, we investigated morphological cellular changes. […] PARP, a hallmark of apoptosis, was also activated by 9a.
Apoptosis was detected by Annexin V-FITC/propidium iodide double staining kit (BD Biosciences). A-549 cells were treated with 9a for 24 h or 48 h. Cells were harvested by trypsinization and washed with ice-cold PBS. Cells were labeled with annexin V-FITC and propidium iodide for 15 min at room temperature in the dark. Labeled cells were analyzed by FACSCalibur flow cytometer (Becton Dickinson).

ATM = assay: Western blot analysis of ATM phosphorylation (DNA damage response); assay type: cell-based, human; details: after 0.5 h treatment
Protocol: Activation of ATM kinase was confirmed by detecting the phosphorylation of downstream effectors, Chk1, Chk2, and histone H2AX.
Cells were harvested in PBS containing proteinase inhibitors and phosphatase inhibitors, and sonicated. Whole cell lysates were separated by SDS-PAGE and transferred to Immobilon P membrane (EMD Millipore). The membrane was incubated with primary antibody followed by labeling with horseradish peroxidase (HRP)-conjugated secondary antibody (EMD Millipore). Chemilluminence substrate kit (EMD Millipore) was used for detection of membrane-bound HRP, and visualized by the Luminsence image analyzer, LAS4000 (Fuji Photo Film Co., Japan).
Antibodies to caspase-3, caspase-8, caspase-9, PARP, phospho-ATM (Ser1981), ATM, phospho-ATR (Ser428), phospho-Chk1 (Ser345), phospho-Chk2 (Thr68), Chk2, phospho-H2AX (Ser139), and phospho-p53 (Ser15) were purchased from Cell Signaling Technology. Antibodies against ATM, ATR, Chk1, and PUMA were from Santa Cruz Biotechnology. Antibodies against Topo I, Topo IIα, Topo IIβ, p53, FADD, BAX, Bcl-xL, and Bcl-2 were from BD Biosciences. Antibody to β-actin was purchased from EMD Millipore.

[1] = tested on: human colorectal adenocarcinoma HCT116 xenograft; assay: Xenograft model antitumor assay; assay type: in vivo, nu/nu mice; details: for mice showing complete regression: i.v. 7 days then i.p., n=8, 31-day study
Protocol: Xenograft model antitumor assay using human colorectal adenocarcinoma cell line HCT116 was performed according to the regimen in Table 2. The 31-day study utilized four groups of mice (n=8) bearing established HCT116 xenograft with mean volumes of approximately 200 mm^3 on day one. The tumor growth and animal body weight change for each treatment group were measured three times per week (FIGS. 2 and 3). Compound 9a was administered intravenously (i.v.) for 7 days and then intraperitoneally (i.p.) at 5 and 10 mg/kg once every day (QD) to the end.
Five- to six-week-old female nu/nu mice (National Laboratory Animal Center, Taiwan) were inoculated subcutaneously with 2×10^6 human colorectal adenocarcinoma HCT116 cells in flank. When the grafted tumor volume reached the average volume of 200 mm^3, mice were randomly divided into four groups (n=8). Vehicle control and compound 9a at 5 or 10 mg/kg were administered i.v. once a day (QD) for 7 days and then i.p. once a day to the end. As an experimental control group, 100 mg/kg of compound 3 was administered i.v. once a week (QWK) to the end. The length (L) and width (W) of graft was measured every 3 to 4 days to the end, and the tumor volume was calculated as LW^2/2. Results were evaluated statistically by Student's t-test. This study was approved by the Institutional Animal Care and Use Committee (IACUC) of the National Taiwan University (Taipei, Taiwan), and was performed according to the institutional guidelines.

## CC[C@@]1(OC(=O)CNC(Cc2ccc(OC)cc2)=NS(=O)(=O)c2ccc(C)cc2)C(=O)OCc2c1cc1n(c2=O)Cc2cc3ccccc3nc2-1 [Compound 9a]
Topo I
  Topo I-mediated relaxation of supercoiled DNA: inhibited the relaxation of supercoiled DNA
HCT 116 (Colon cancer)
  IC50: 46.1 ± 1.74 nM
A-549 cells; A-549, 24 h, vehicle […]
  annexin V positive cell population: 3.7%
A-549 cells; A-549, 48 h, vehicle 2.0%
  annexin V positive cell population: 34.1%
ATM
  ATM phosphorylation at Ser1981: underwent phosphorylation at Ser1981 residue
[1]; 5 mg/kg QD
  mice showing complete regression: Two of eight
[1]; 5 mg/kg QD, P<0.01, Student's t-test
  antitumor activity in vivo (tumor growth): significant antitumor activity
[1]; 10 mg/kg QD
  mice showing complete regression: three of eight
[1]; 10 mg/kg QD, P<0.001, Student's t-test
  antitumor activity in vivo (tumor growth): significant antitumor activity
[1]; 5 and 10 mg/kg QD, xenograft mice
  animal body weight change: no significant changes in body weight
